From paper PMC6530361, “Anti-tumor Efficacy Assessment of the Sigma Receptor Pan Modulator RC-106. A Promising Therapeutic Tool for Pancreatic Cancer” (Frontiers in Pharmacology, 2019)

What was measured:
[1] = tested on: proteasome activity of Capan-2; test: Proteasome activity assay; type: cell-based; conditions: Capan-2, 24 h
Procedure: (§1) Cells were seeded in 6-well plates at density of 250 × 10^3 cells/well. Cells were treated with increasing concentration of RC-106 and after 24 h total protein extracts were obtained: cells were washed 2 times with PBS and lysed with 100 μL of lysis buffer (Hepes 5 mM pH 7.5, NaCl 150 mM, Glycerol 10%, Triton X100 1%, MgCl2 1.5 mM, EGTA 5 mM). Protein concentration of samples was quantified using Bradford method. Proteasome activity was quantified as described below. Proteasome solution was composed by 40 μg of proteins, 10 μL of 10X proteasome buffer (Hepes pH 7.5 250 mM, EDTA pH 8.0 5 mM, NP-40 0.5%, SDS 0.01%) and 10 μL of 10 mM proteasome substrate (N-Succinyl-Leu-Leu-Val-Tyr-7-Amido-4-Methylcoumarin, 7.6 mg/mL; Sigma-Aldrich, United States). 100 μL of proteasome solution was loaded in wells of a black 96-well plate. The plate was then incubated at 37°C for 2 h and the fluorescence was measured in a microplate reader (excitation 380 nm, emission 460 nm; BMG-Labtech, Germany).

[2] = tested on: proteasome activity of Capan-1; test: Proteasome activity assay; type: cell-based; conditions: Capan-1, 24 h, highest concentration used
Procedure: as §1

Panc-1 = test: TUNEL assay; type: cell-based; conditions: Panc-1, RC-106 50 μM, 48 h
Procedure: (§2) TUNEL assay was performed as previously described ([Tesei et al., 2007]). Briefly, cells were fixed in 1% formaldehyde in PBS on ice for 15 min, suspended in 70% ice cold ethanol and stored overnight at […]. Cells were then washed twice in PBS and re-suspended in PBS containing 0.1% Triton X-100 for 5 min at […]. Thereafter, samples were incubated in 50 μL of solution containing TdT and FITC conjugated dUTP deoxynucleotides 1:1 (Roche Diagnostic GmbH, Mannheim, Germany) in a humidified atmosphere for 90 min at 37°C in the dark, washed in PBS, counterstained with propidium iodide (2.5 μg/mL, MP Biomedicals, Verona, Italy) and RNAse (10 kU/mL, Sigma–Aldrich) for 30 min at […] in the dark and analyzed by flow cytometry. Flow cytometric analysis was performed using a FACS Canto flow cytometer (Becton Dickinson, San Diego, CA, United States). Data acquisition and analysis were performed using FACSDiva software (Becton Dickinson). Samples were run in triplicate and 10,000 events were collected for each replicate.

Capan-1 = test: TUNEL assay; type: cell-based; conditions: Capan-1, RC-106 50 μM, 48 h
Procedure: as §2

In the case of `C/C(=C\CN1CCC(Cc2ccccc2)CC1)c1ccc2ccccc2c1` [RC-106, (E)-4-benzyl-1-(3-(naphthalen-2-yl)but-2-en-1-yl)piperidine], the “lowest concentration used to inhibit proteasome activity” value [1] was 20 µM, the “concentration at which greatest proteasome inhibition is observed” value [2] was 100 µM and the melting point was 221 to 222 °C. For the same molecule, the “percentage of apoptotic cells” value (Panc-1) was 53.25% and the “percentage of apoptotic cells” value (Capan-1) was 78.55%.
